Biological target: T1, β3-AR (Homo sapiens, UniProt P13945)
T1 construct: Full-length β3-AR clones (402 amino acids) containing the last 6 amino acids of hβ3-AR are prepared; expressed in transfected cells; host or cells: CHO cells
Assay: cAMP accumulation (SPA) in CHO cells transfected with β3-AR
Assay type: cell-based
Settings: for EC50: CHO cells transfected with human β3-AR, cAMP, 30 min incubation, 10^-9 to 10^-5 M; for IA(β3): maximal response relative to maximal response of isoproterenol at 10^-5 M
Procedure: The ability of the compounds of this invention to treat or inhibit disorders related to insulin resistance or hyperglycemia was confirmed with representative compounds of this invention in the following standard pharmacological test procedures, which measured the binding selectivity of the β1-, β2-, and β3-AR. Binding to the receptors was measured in Chinese Hamster ovary (CHO) cells that were transfected with β1-, β2-, and β3-AR's. The following briefly summarizes the procedures used and results obtained.
cDNA was constructed by ligating four polymerase chain reaction (PCR) products using the following primers: an ATG-Narl fragment, sense primer 5′-[…]3′ and anti-sense primer 5′ […]3′; a Narl-Accl fragment, 5′[…]3′ as sense and 5′[…]3′ as anti-sense primer; an Accli-Styl fragment, sense primer 5° […]3′ and anti-sense primer 5′[…]3′ and a Styl-TAG fragment, with sense primer 5° […]3′ and anti-sense primer 5° […]3′. The corresponding primer sequences are described in Mantzoros, C. S., et.al., Diabetes, 1996, 45, 909-914. The four fragments are ligated into a pUC 18 plasmid (Gibco-BRL) and sequenced. Full-length β3-AR clones (402 amino acids) containing the last 6 amino acids of hβ3-AR are prepared with the β3-βARpcDNA3 from ATTC.
Clones expressing receptor levels of 70 to 110 fmoles/mg protein were used in the test procedures. CHO cells were grown in 24-well tissue culture plates in Dulbecco's Modified Eagle Media with 10% fetal bovine serum, MEM non-essential amino acids, Penicillin-Streptomycin and Geneticin. On the day of test procedure, growth medium was replaced with preincubation media (Dulbecco's Modified Eagle Media) and incubated for 30 minutes at 37° C. Pre-incubation medium was replaced with 0.2 ml treatment medium containing DMEM media containing 250 μM IBMX (isobutyl-1-methylxantine) plus 1 mM ascorbic acid with test compound dissolved in DMSO. Test compounds were assayed over a concentration range of 10^−9 M to 10^−5M for β3-AR transfected cells and 10^−8 to 10^−4 M for […] transfected cells. Isoproterenol (10^−5 M) was used as an internal standard for comparison of activity. Cells were incubated at 37° C. on a rocker for 30 min with the β3-AR transfected cells and 15 min with β1-AR and β2-AR transfected cells. Incubation was stopped by the addition of 0.2N HCl and the acid was neutralized with 2.5N NaOH. The plates, containing the cells and neutralized media, were stored at −20° C. until ready to test for cAMP using the SPA test kit (Amersham).
Data collected from the SPA test procedure were analyzed as percent of the maximal isoproterenol response at 10^−5 M. Activity curves were plotted using the SAS statistical and graphics software.

T1 sequence (P13945 whole entry): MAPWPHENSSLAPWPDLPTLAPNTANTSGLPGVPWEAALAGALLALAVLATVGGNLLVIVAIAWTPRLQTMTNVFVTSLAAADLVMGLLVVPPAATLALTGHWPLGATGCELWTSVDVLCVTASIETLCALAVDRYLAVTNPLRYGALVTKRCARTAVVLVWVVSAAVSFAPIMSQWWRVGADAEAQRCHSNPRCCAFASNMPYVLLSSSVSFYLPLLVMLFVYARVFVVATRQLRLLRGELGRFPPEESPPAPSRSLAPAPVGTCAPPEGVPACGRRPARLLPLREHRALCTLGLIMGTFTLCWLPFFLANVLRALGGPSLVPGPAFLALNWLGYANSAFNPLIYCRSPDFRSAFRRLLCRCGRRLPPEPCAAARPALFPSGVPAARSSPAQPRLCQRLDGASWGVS

| Compound | EC50 | IA(β3) |
| --- | --- | --- |
| CCOC(=O)CC1Cc2cc(-c3cccc(CNC[C@H](O)c4ccc(O)c(NS(C)(=O)=O)c4)c3)ccc2NC1=O (some centres unmarked) [Example 2] | 90 nM | 1.0 |
| Ethyl [6-(4-{[(2R)-2-hydroxy-2-{4-hydroxy-3-[(methylsulfonyl)amino]-phenyl}ethyl)amino]methyl}phenyl)-2-oxo-1,2,3,4-tetrahydroquinolin-3-yl]acetate [Example 4] | 70 nM | 1.0 |
| COC(=O)CC1Cc2ccc(-c3cccc(CNC[C@H](O)c4ccc(O)c(NS(C)(=O)=O)c4)c3)cc2NC1=O (stereo partly drawn) [Example 3, [7-(3-{[(2R)-2-Hydroxy-2-(4-hydroxy-3-methanesulfonylamino-phenyl)-ethylamino]-methyl}-phenyl)-2-oxo-1,2,3,4-tetrahydro-quinolin-3-yl]-acetic acid methyl ester] | 60 nM | 1.0 |
| COC(=O)CC1Cc2ccc(-c3ccc(CNC[C@H](O)c4ccc(O)c(NS(C)(=O)=O)c4)cc3)cc2NC1=O (stereo partly drawn) [Example 1, [7-(4-{[(2R)-2-Hydroxy-2-(4-hvdroxy-3-methanesulfonylamino-phenyl)-ethylamino]-methyl}-phenyl)-2-oxo-1,2,3,4-tetrahydro-quinolin-3-yl]-acetic Acid Methyl Ester] | 40 nM | 1.1 |

From patent US6514991B2, “Phenyl-oxo-tetrahydroquinolin-3-yl beta-3 adrenergic receptor agonists” (Wyeth, priority 2000, dated 2003)
